From patent US20150079673A1, “HEPATOCYTES IN CO-CULTURE AND USES THEREOF” (Colorado State University Research Foundation, priority 2013, published 2015) come the findings set out here.

Common to all, as to assay type: cell-based
Assay [1] deals with human hepatocytes maintained in micropatterned co-culture with 3T3-J2 murine embryonic fibroblasts. Briefly: Glycogen lysis in MPCC, PAS stain of intracellular glycogen. To be noted: glucose free medium + 100 nm hormone, 24 hrs after treatment; FIG. 11A. The method, then:
(§1) Glycogen lysis and glycogen synthesis in MPCC hepatocytes was also studied. The rate of glycogen lysis in MPCCs was measured by incubating cultures with glucose-free/hormone-free medium for 48 hours (fasting), followed by fixation of cultures using 4% paraformaldehyde and staining of intracellular glycogen (periodic acid Schiff stain (“PAS stain”)). The rate of glycogen synthesis was measured by first depleting glycogen stores as described above, followed by addition of glucose to medium (feeding) and staining of glycogen at specific time-points. Results at 24 hours are shown in FIGS. 11A-B. FIG. 11A is a panel of four photomicrographs of human hepatocytes maintained in micropatterned co-culture with 3T3-J2 murine embryonic fibroblasts, indicating glycogenolysis in the cells under four conditions: 25 mM glucose, glucose free, glucose free+100 nm glucagon, and glucose free+100 nm insulin, 24 hrs after treatment. […] MPCCs were cultured in glucose free media for 2 days and depleted of all glycogen prior to the addition of 5 mM glucose. […]

Assay [2] has the same test system. As to the kind of experiment: Glycogen synthesis in MPCC, PAS stain of intracellular glycogen. The conditions noted are these: glycogen-depleted, 5 mM glucose + 100 nm hormone, 24 hours after treatment; FIG. 11B. The method, then:
as §1

For assay [3] the test system is unchanged. Briefly: Gluconeogenesis (glucose production) in glycogen-depleted MPCC. The conditions noted are these: at 24 hours, following a varying dose of metformin; FIG. 9B.
Description: To test for gluconeogenesis in diabetic hepatocytes in co-culture, the MPCC hepatocyte cultures comprising diabetic versus non-diabetic cells were subjected to glucose-free medium for 24-48 hours, thereby depleting the resident glycogen stores so that cells were only able to perform gluconeogenesis in the presence of the glucose precursors lactate and pyruvate. Gluconeogenesis rate was measured by incubating glycogen-depleted cultures with the substrates pyruvate and lactate, in glucose-free medium and glucose measurement in medium (Amplex Red) at 24 hours, thereby isolating the contribution of gluconeogenesis to glucose production, from potential residual glucose output due to glycogen depletion.
Cells were also tested under the glycogen depletion conditions as described above, for the effect of hormones on glucose production. The MPCCs were subjected to glycogen depletion for 12 hours, followed by stimulation of gluconeogenesis using lactate or pyruvate, in the presence or absence of insulin, glucagon or dexamethasone. Released glucose was measured 24 hours later.

With insulin, the “glycogenolysis (intracellular glycogen, PAS stain)” value in assay [1] is listed as “continued storing glycogen”. Also, the “glycogen synthesis (intracellular glycogen, PAS stain)” value in assay [2] is reported as “at a higher rate when stimulated by insulin”.
Turning to `CN(C)C(=N)N=C(N)N` [metformin], the “glucose production (gluconeogenesis)” value in assay [3] is “dose-dependent blockage”.
glucagon: the “glycogenolysis (intracellular glycogen, PAS stain)” value in assay [1] was “at a higher rate when stimulated by glucagon”. For the same molecule, the “glycogen synthesis (intracellular glycogen, PAS stain)” value in assay [2] was “did not synthesize glycogen”.
